From patent publication US9670201B2, “Methyl- and trifluoromethyl-substituted pyrrolopyridine modulators of RORC2 and methods of use thereof” (Pfizer Inc., priority 2014, dated 2017)

Target: RORC2 ligand binding domain (6-His-RORC2 LBD) (Homo sapiens (Human), UniProt P51449)
Assay: Co-activator recruitment by TR-FRET
Format: biochemical
Conditions: 6-His-RORC2 LBD / SRC1-2 coactivator peptide, Table 1

RORC2 ligand binding domain (6-His-RORC2 LBD), sequence (P51449 269-508): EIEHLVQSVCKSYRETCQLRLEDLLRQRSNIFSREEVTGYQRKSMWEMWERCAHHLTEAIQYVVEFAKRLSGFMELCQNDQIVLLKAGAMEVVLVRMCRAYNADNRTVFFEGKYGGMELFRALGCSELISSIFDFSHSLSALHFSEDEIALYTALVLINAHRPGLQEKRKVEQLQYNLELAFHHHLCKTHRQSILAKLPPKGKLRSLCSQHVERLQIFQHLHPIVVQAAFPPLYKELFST

Row | Structure (SMILES) | IC50 [µM]
1 | Cn1cc([C@@H]2CCN(C(=O)C3CCCC3)C(C)(C)C2)c2c(C(F)(F)F)c(NC(=O)c3cccc(C#N)c3)cnc21 [Example 65, (R)-3-cyano-N-(3-(1-(cyclopentanecarbonyl)-2,2-dimethylpiperidin-4-yl)-1-methyl-4-(trifluoromethyl)-1H-pyrrolo[2,3-b]pyridin-5-yl)benzamide] | 0.0057
2 | Cc1c(NC(=O)c2cccc(C#N)c2)cnc2c1c([C@@H]1CCN(C(=O)C[C@@H](O)C(F)(F)F)C(C)(C)C1)cn2C [Example 73, 3-cyano-N-(3-((R)-2,2-dimethyl-1-((R)-4,4,4-trifluoro-3-hydroxybutanoyl)piperidin-4-yl)-1,4-dimethyl-1H-pyrrolo[2,3-b]pyridin-5-yl)benzamide] | 0.0226
3 | Cc1c(NC(=O)c2cccc(C#N)c2)cnc2c1c([C@@H]1CCN(C(=O)CC3CCCC3)C(C)(C)C1)cn2C [Example 74, (R)-3-cyano-N-(3-(1-(2-cyclopentylacetyl)-2,2-dimethylpiperidin-4-yl)-1,4-dimethyl-1H-pyrrolo[2,3-b]pyridin-5-yl)benzamide] | 0.0062
4 | Cc1c(NC(=O)c2cccc(C#N)c2)cnc2c1c([C@@H]1CCN(C(=O)CC3CCCCC3)C(C)(C)C1)cn2C [Example 75, (R)-3-cyano-N-(3-(1-(2-cyclohexylacetyl)-2,2-dimethylpiperidin-4-yl)-1,4-dimethyl-1H-pyrrolo[2,3-b]pyridin-5-yl)benzamide] | 0.0073
5 | Cc1c(NC(=O)c2cccc(C#N)c2)cnc2c1c([C@@H]1CCN(C(=O)CC3CCC3)C(C)(C)C1)cn2C [Example 76, (R)-3-cyano-N-(3-(1-(2-cyclobutylacetyl)-2,2-dimethylpiperidin-4-yl)-1,4-dimethyl-1H-pyrrolo[2,3-b]pyridin-5-yl)benzamide] | 0.0075
6 | CC(C)C(=O)N1C[C@H]2CC[C@@H](C1)[C@@H]2c1cn(C)c2ncc(NC(=O)c3cccc(C#N)c3)c(C(F)(F)F)c12 [Example 77, 3-cyano-N-(3-((1R,5S,8r)-3-isobutyryl-3-azabicyclo[3.2.1]octan-8-yl)-1-methyl-4-(trifluoromethyl)-1H-pyrrolo[2,3-b]pyridin-5-yl)benzamide] | 0.0052
7 | Cn1cc(C2[C@@H]3CC[C@H]2CN(C(=O)C2CCCC2)C3)c2c(C(F)(F)F)c(NC(=O)c3cccc(C#N)c3)cnc21 (stereo partly drawn) [Example 79, 3-cyano-N-{3-((1R,5S,8r)-3-(cyclopentanecarbonyl)-3-azabicyclo[3.2.1]octan-8-yl]-1-methyl-4-(trifluoromethyl)-1H-pyrrolo[2,3-b]pyridin-5-yl}benzamide] | 0.0391
8 | CC(C)C(=O)N1CC[C@@H](c2cn(C)c3ncc(NC(=O)c4cccc(C#N)c4F)c(C(F)(F)F)c23)[C@@H](C)C1 [Example 82, 3-cyano-2-fluoro-N-(3-((3R,4R)-1-isobutyryl-3-methylpiperidin-4-yl)-1-methyl-4-(trifluoromethyl)-1H-pyrrolo[2,3-b]pyridin-5-yl)benzamide] | 0.0051
9 | Cc1c(NC(=O)c2cccc(C#N)c2)cnc2c1c([C@@H]1CCN(C(=O)C(C)C3CC3)C[C@@H]1C)cn2C (stereo partly drawn) [Example 86, 3-cyano-N-(3-((3R,4R)-1-(2-cyclopropylpropanoyl)-3-methylpiperidin-4-yl)-1,4-dimethyl-1H-pyrrolo[2,3-b]pyridin-5-yl)benzamide] | 0.016
10 | COc1cc(C#N)cc(C(=O)Nc2cnc3c(c([C@@H]4CCN(C(=O)C5CCCC5)[C@@H](C)C4)cn3C)c2C)c1 [Example 90, 3-cyano-N-(3-((2S,4R)-1-(cyclopentanecarbonyl)-2-methylpiperidin-4-yl)-1,4-dimethyl-1H-pyrrolo[2,3-b]pyridin-5-yl)-5-methoxybenzamide] | 0.0212
11 | COc1ccc(C(=O)Nc2cnc3c(c(C4[C@@H]5CC[C@H]4CN(C(=O)C4CCCC4)C5)cn3C)c2C)cc1C#N (stereo partly drawn) [Example 99, 3-cyano-N-(3-((1R,5S,8r)-3-(cyclopentanecarbonyl)-3-azabicyclo[3.2.1]octan-8-yl)-1,4-dimethyl-1H-pyrrolo[2,3-b]pyridin-5-yl)-4-methoxybenzamide] | 0.0211
12 | Cc1c(NC(=O)c2cccc(C#N)c2)cnc2c1c([C@@H]1CCN(C(=O)C(C)C)[C@@H](C)C1)cn2C [Example 113, 3-cyano-N-(3-((2S,4R)-1-isobutyryl-2-methylpiperidin-4-yl)-1,4-dimethyl-1H-pyrrolo[2,3-b]pyridin-5-yl)benzamide] | 0.0202
